Source: PMC10771423 (Applied Microbiology and Biotechnology, 2024)

Tests used:
AldOTf [1] = biological target: T1, AldOTf (Thermopolyspora flexuosa, UniProt A0A543IX60); assay: oxygen consumption (oxygen electrode), steady-state kinetics; format: biochemical; settings: read-out: KM (mM) / Glycerol^b; 50 mM KPi pH 7.5, 25 °C, O2 as co-substrate
T1 construct: gene FHX40_1862
Description: oxygen consumption (oxygen electrode), steady-state kinetics on AldOTf

AldOTf [2] = biological target: T1, AldOTf; assay: HRP-coupled AAP/DCHBS H2O2 assay, […] nm, steady-state kinetics; format: biochemical; settings: read-out: KM (mM) / Xylitol^a; 50 mM KPi pH 7.5, 25 °C, O2 as co-substrate

T1 sequence (A0A543IX60 entry or part of it): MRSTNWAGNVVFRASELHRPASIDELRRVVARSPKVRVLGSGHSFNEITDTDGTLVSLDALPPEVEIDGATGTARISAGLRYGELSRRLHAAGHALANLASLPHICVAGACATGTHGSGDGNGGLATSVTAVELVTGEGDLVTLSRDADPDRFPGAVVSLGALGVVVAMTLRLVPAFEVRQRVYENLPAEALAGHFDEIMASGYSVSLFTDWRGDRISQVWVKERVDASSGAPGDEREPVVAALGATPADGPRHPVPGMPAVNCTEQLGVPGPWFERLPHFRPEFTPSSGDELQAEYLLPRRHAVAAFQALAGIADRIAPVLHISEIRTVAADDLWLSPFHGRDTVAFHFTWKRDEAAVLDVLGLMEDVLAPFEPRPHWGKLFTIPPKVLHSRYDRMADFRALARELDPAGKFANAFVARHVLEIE

Row | SMILES | Km (AldOTf [1]) | Km (AldOTf [2])
1 | OCC(O)CO [glycerol] | 41 mM | –
2 | OC[C@@H](O)[C@H](O)[C@@H](O)CO [xylitol] | – | 0.04 mM
